# From patent publication US20180200279A1, “INHIBITION OF HSV-1-ASSOCIATED CORNEAL NEOVASCULARIZATION USING INHIBITORS OF CYCLIN-DEPENDENT KINASE 9” (XAVIER UNIVERSITY OF LOUISIANA, priority 2014, published 2018)
# How the values were obtained:
# HUVEC [1] = assay: Endothelial cell Matrigel transwell invasion assay; type: cell-based, human; conditions: 25 ng/mL VEGF and bFGF
# Method: After 12-16 hours, tubules were counted at low magnification and percentage of inhibition was expressed using VEGF control wells as 100%.
# (§1) Migration/invasion assays were performed using 24-well, 8-μm pore size BD Biocoat Matrigel migration chambers according to the manufacturer's instructions (BD Biosciences, San Jose, Calif.). […] Cells were allowed to migrate for 16 hours at 37° C. Following incubation, cotton swabs were used to remove the cells on the top surface of the membrane, and cells on the bottom side of the membrane were fixed with 4% formaldehyde for 30 min, washed 3-5 times with PBS, and then stained with 10 μM Calcein AM (migration) or 10 μM Celltracker green-labeled (invasion). Migrating or invading cells from three repeats in two independent experiments were then counted using an inverted microscope. Data are expressed as mean percent migration and mean percent invading cells compared with untreated cells±SEM.
# In addition to migration, new blood vessel formation requires that endothelial cells invade through extracellular matrix (ECM) surrounding the existing vasculature. Inhibition of invasion therefore inhibits angiogenesis. […] Celltracker green-labeled HUVEC that successfully degraded the Matrigel and crossed into the lower chamber containing 25 ng/mL VEGF and bFGF in the presence or absence of FP were counted and expressed as a percent of untreated control cells (FIG. 2B).
# [2] = Ocular safety and tolerability of the formulation, mouse eyes; type: in vivo; conditions: dose and frequency of the HSV-1 corneal neovascularization study
# Method: (§2) This was assessed with the dose and frequency that was used in the chemotherapeutic study of HSV-1 corneal neovascularization. FIG. 1A presents the results of slit-lamp examination (SLE) scores of the corneas of the four treatment groups beginning on post-inoculation day 2 and continuing to 25 days following infection.
# HUVEC [3] = assay: In vitro tubule formation assay; type: cell-based, human; conditions: 25 ng/mL bFGF and VEGF
# Method: The number of circular tubular structures formed by HUVEC under conditions of serum starvation followed by treatment with 25 ng/mL bFGF and VEGF and with 0-200 nM FP were quantitatively analyzed. Manual counting at low power fields was used to quantitate tubular structures and percentage of inhibition was expressed using VEGF control wells as 100%.
# Growth factor-reduced Geltrex (Life Technologies, Grand Island, N.Y.) was thawed overnight on ice. Each well of 96-well plated was coated at […] with 50 μL Geltrex and incubated at 37° C. for 30 min. […] After 12-16 hours, tubule formation was assessed with an inverted photomicroscope and the images were photographed using Olympus U-RLF-T microscope. Manual counting at low power fields was used to quantitate tubular structures and percentage of inhibition was expressed using VEGF control wells as 100%. Results represent one triplicate repeat of three independent experiments with similar results.
# Following migration from the vessel of origin and invasion through the ECM, ECs form capillary tubules. […] The number of circular nodes surrounded by tubular structures was quantitatively analyzed in a masked fashion.
# [4] = tested on: chick embryo chorioallantoic membrane; assay: Ex ovo chick chorioallantoic membrane (CAM) collagen onplant angiogenesis assay; type: in vivo; conditions: 100 nM flavopiridol in bFGF/VEGF-containing collagen plugs; 3 days
# Method: After 3 days, CAMs were photographed, and angiogenesis was quantified by counting the number of grids positive for new blood vessel growth in a blinded manner. Results are expressed as number of grids positive for blood vessels and as percent positive grids.
# Female 20 g Balb/c mice were obtained from Charles River Laboratories. Mice were allowed to equilibrate to their surroundings for 2 weeks and then were anesthetized by intramuscular administration of xylazine (6.6 mg/kg of body weight) and ketamine (100 mg/kg of body weight). The corneas were mildly scarified in a 2×2 cross-hatch pattern and each cornea was inoculated with 5×10^5 PFU of strain HSV 17syn+. […] DNA was collected by swabbing the eyes with filter paper, and the eyes were examined with a slit-lamp on PI days 2, 4, 7, 9, 11, 14, 18 and 25. Average neovascularization/eye was scored using the formula A=(C×0.4×L×π)/2 where C=clock hours of neovascularization; 30° arc is 1 (360° circle with a total of 12); L is the length of the longest neovessel, and A is the area of neovascularization. Students scored (by eye) the animals on the days indicated in a masked fashion using the slit-lamp, and images representative of each group were taken. Clinical scores based on epiphora, inflammation and discharge were calculated where 0=no manifestations, +1=slight manifestations, +2=moderate manifestations, and +3=severe manifestations. […]
# HUVEC [5] = assay: Endothelial cell transwell migration assay; type: cell-based, human; conditions: 16 hours
# Method: as §1
# Cell migration induced by chemoattractant angiogenic factors such as bFGF and VEGF is an important step in the angiogenic process. […] Data presented as percent fluorescence normalized to control untreated cells (100% migration).
# global transcription = conditions: low-dose FP; Lu et al. Mol Cancer Ther (2004); cited from earlier work
# [6] = tested on: corneal neovascularization due to alkali burn; assay: Corneal neovascularization due to chemical (NaOH) burn in mice; type: in vivo, Balb C mice; conditions: 0.01% FP 5× daily; four days post injury; 0.15N NaOH for 15 seconds
# Method: Following chemical treatment of mouse eyes with 0.15N NaOH, control and treated eyes were scored for neovascularization using the formula A=(C×0.4×L×pi)/2; where C=clock hours of neovascularization; 30° arc is 1 (360° L is the length of the longest neovessel, and A is the area of neovascularization. Animals were scored using a slit-lamp microscope, and images representative of each group were taken. One day post injury, flavopirodol reduced neovascularization to the level observed in undamaged and in damaged but prednisone-treated eyes.
# To determine whether FP would reduce corneal neovascularization due to chemical injury in a mouse model system, female Balb C mice (7 per group) were treated in their right eyes with 0.15N NaOH for 15 seconds and the left eye was not treated with NaOH. […] Neovascularization was scored using the formula A=(C×0.4×L×pi)/2; where C=clock hours of neovascularization; 30° arc is 1 (360° L is the length of the longest neovessel, and A is the area of neovascularization. Animals were scored in a masked fashion using a slit-lamp microscope, and images representative of each group were taken. The longest possible length of a neovessel is 1.6 mm and the greatest possible arc is 12/12 hours.
# [7] = Ocular safety and tolerability of the formulation, rabbit eyes; type: in vivo; conditions: dose and frequency of the HSV-1 corneal neovascularization study
# Method: as §2
smiles,measurement,setting,value
CN1CC[C@H](c2c(O)cc(O)c3c(=O)cc(-c4ccccc4Cl)oc23)[C@H](O)C1 [flavopiridol],invading cells as percent of untreated control,HUVEC [1]; 50 nM flavopiridol,67.08%±6.50
same,invading cells as percent of untreated control,HUVEC [1]; 100 nM flavopiridol,59.74%±6.98
same,invading cells as percent of untreated control,HUVEC [1]; 200 nM flavopiridol,32.64%±8.58
same,safety and tolerability of the formulation in the eye,[2],safe and well-tolerated
same,"tubular structures, VEGF control wells as 100%","HUVEC [3]; 50 nM flavopiridol, not statistically different from control",114.7±7.17
same,"tubular structures, VEGF control wells as 100%","HUVEC [3]; 100 nM flavopiridol, not statistically different from control",97.67±5.36
same,"tubular structures, VEGF control wells as 100%","HUVEC [3]; 150 nM flavopiridol, significantly reduced",55.33±9.70
same,angiogenesis: grids positive for newly formed blood vessels,[4],14.33±2.10
same,percent migration normalized to untreated control cells (100%),HUVEC [5]; 100 nM flavopiridol,74.99%±2.35
same,percent migration normalized to untreated control cells (100%),HUVEC [5]; 150 nM flavopiridol,25.08±1.79%
same,block of global transcription,global transcription,does not block global transcription
same,corneal neovascularization after alkali burn (slit-lamp area score),[6],reduced neovascularization due to alkali burn to the level observed in undamaged and in damaged but prednisone-treated eyes
same,safety and tolerability of the formulation in the eye,[7],safe and well-tolerated
